Data on two molecules can be found in US20250325256A1, “LIPID PATCH” (SENSACH AB, priority 2021, published 2025).

Data set [1] in a line: Post iontophoretic passive extraction (further 18 hours). It is filed as in vitro ADME, pig. The settings on record: for Normalized cumulative amount at anode / Normalized cumulative amount at cathode: mean ± SEM. The text has this:
Therefore, while enhancing extraction at the cathode, electroosmosis (at pH>skin pI) retards the extraction of anions and zwitterions towards the anode as they have to move against the solvent flow. This may result in a build-up of zwitterions moving towards the anode and against the electroosmotic flow. Therefore, the skin membrane that faces the anodal compartment could potentially contain higher amounts of zwitterionic compounds compared to the skin membrane facing the cathodal compartment. In order to further investigate the effect of electroosmosis, the post iontophoretic passive extraction experiments were performed for another 18 hours.
The effect of receptor solution pH on the cumulative amount of endogenous substances extracted from the skin membrane during post iontophoretic passive extraction as well as from passive control experiments is shown in FIG. 16. […] Moreover, in post iontophoretic experiments, there was an increase in the amount of endogenous substances passively extracted into anode compartment with increased pH. In order to determine the amount of endogenous substances obtained during the post iontophoretic step, the cumulative amount of endogenous substances extracted during 6 hours of reverse iontophoresis were subtracted from the total cumulative amount.
In extraction experiments preformed without a cubic phase, sampling was performed every hour for six hours by withdrawing 1 mL from the receptor compartments and replacing it with 1 mL of neat buffer solution. After the final sampling the current was stopped and the donor compartment was emptied. The post iontophoretic passive extraction from the skin membranes was allowed to continue for another 18 hours in order to investigate the effect of electroosmosis, since the skin membrane was the only source of endogenous substance after removal of donor solution. In total 7 samplings were performed over 24 hours i.e., 6 during the current passage and 1 from the post iontophoretic passive extraction. In case of reverse iontophoretic extraction into the cubic phase, the sampling was performed in the same way i.e., every hour for 6 hours 1 mL of receptor solution was replaced with a 1 mL of a neat buffer. However, in contrast to previous procedure, the experiment was terminated after 6 hours of current passage. The cubic phase was collected into 1.7 mL Eppendorf tube ensuring that as little residue as possible was left on the skin surface. The extraction of endogenous substances from the cubic phase was performed as follows: 1 mL of Milli-Q water was added to the cubic phase and left on shaker for 1 hour. After that, each Eppendorf tube was vortex for 1 minute and the final aqueous solution was collected with a syringe. Small part of a cubic phase was taken for SAXD measurements in order to investigate any potential changes in the phase after reverse iontophoretic experiment.

Data set [2] is described as follows: Reverse iontophoretic extraction into GMO cubic phase receptor matrix. Type of data set: in vitro ADME, pig. The conditions noted are these: for Cumulative amount Cubic at anode / Cumulative amount Cubic at cathode: in the cubic phase, 6 h, HEPES pH 7.4; for Cumulative amount Total at anode / Cumulative amount Total at cathode: sum of receptor solution after 6 hours and cubic phase. Here is the method: Another objective of the present intention was to investigate the potency of a liquid crystalline cubic phase formed by GMO and water to serve as a matrix for iontophoresis. In order to keep experimental conditions as similar as possible to the previously described experiments, the same horizontal side-by-side cells were used. A fully swollen cubic phase (Pn3m space group) was added into a custom-made sample holder ensuring the formulation was in contact with the skin. In order to prevent contact between the cubic phase and the electrodes, 2 mL of HEPES buffer (pH 7.4, 60 mM NaCl) was added to each receptor compartment. Sampling was performed by withdrawing 1 ml of receptor solution and replacing it with a 1 mL of empty buffer every hour for 6 hours. After the last sampling, the experiment was terminated, and the cubic phase was collected for further analysis. […] It is important to point out that partitioning of Trp and Kyn into cubic bilayer was not taken into account during the calculation of the extracted amounts of respective endogenous substance. The amounts were determined based on the volume of the receptor matrix (100 μL).
The samples for reverse iontophoretic extraction experiments consisting of a liquid crystalline cubic phase were prepared by weighing 0.1 g of glycerol monooleate (GMO) in a 1.8 mL glass vials. GMO was then melted at 45° C. by immersing the vials in the water bath and centrifuged at 1000 g for 5 minutes. The vials were then placed in the freezer (−20° C.) for 30 minutes in order for GMO to crystalize. After crystallization vials were taken out of the freezer and 0.5 g of Milli-Q water was added to each vial, ensuring the excess of added water. […] Prior to use, each vial was examined between cross polarizers for any sign of anisotropy, which would imply that sample had not yet reached equilibrium. […]

[3] abbreviates: pH 4.0, 24 h amount minus first 6 hours.
[4] abbreviates: pH 7.4, 24 h amount minus first 6 hours.
Setting [5] is: pH 9.0, 24 h amount minus first 6 hours.
Setting [6] is: pH 4.0, from normalized cumulative amounts.
Where [7] appears, read: pH 7.4, from normalized cumulative amounts.
[8] abbreviates: pH 9.0, from normalized cumulative amounts.

`Nc1ccccc1C(=O)C[C@H](N)C(=O)O` [Kyn, L-kynurenine]: in data set [1] (setting [3]), the “Normalized cumulative amount at anode” value stood at 6.56 ± 2.40 nmol/cm^2 and the “Normalized cumulative amount at cathode” value is on record as 5.31 ± 1.35 nmol/cm^2. Further, in data set [1] (setting [4]), the “Normalized cumulative amount at anode” value amounted to 14.35 ± 2.33 nmol/cm^2 and the “Normalized cumulative amount at cathode” value stood at 2.12 ± 8.37 nmol/cm^2. In data set [1] (setting [5]), the “Normalized cumulative amount at anode” value came out at 19.90 ± 2.45 nmol/cm^2 and the “Normalized cumulative amount at cathode” value was 10.29 ± 2.07 nmol/cm^2. Also, in data set [2], the “Cumulative amount Cubic at anode” value was 0.28 ± 0.28 nmol/cm^2, the “Cumulative amount Cubic at cathode” value is 5.62 ± 0.45 nmol/cm^2, the “Cumulative amount Total at anode” value was 0.28 ± 0.28 nmol/cm^2 and the “Cumulative amount Total at cathode” value turned out to be 7.53 ± 0.83 nmol/cm^2.
For `N[C@@H](Cc1c[nH]c2ccccc12)C(=O)O` [Trp, L-tryptophan], in data set [1] (setting [3]), the “Normalized cumulative amount at anode” value is given as 6.22 ± 1.49 nmol/cm^2 and the “Normalized cumulative amount at cathode” value was found to be 5.36 ± 1.32 nmol/cm^2. Moreover, in data set [1] (setting [6]), the “Ratio (Trp/Kyn) at anode” value was 1.19 ± 0.17 and the “Ratio (Trp/Kyn) at cathode” value turned out to be 1.05 ± 0.03. Further, in data set [1] (setting [4]), the “Normalized cumulative amount at anode” value stood at 14.13 ± 2.25 nmol/cm^2 and the “Normalized cumulative amount at cathode” value worked out at 7.38 ± 2.57 nmol/cm^2. Besides, in data set [1] (setting [7]), the “Ratio (Trp/Kyn) at anode” value is 0.99 ± 0.02 and the “Ratio (Trp/Kyn) at cathode” value is on record as 0.86 ± 0.08. In data set [1] (setting [5]), the “Normalized cumulative amount at anode” value is reported as 17.52 ± 1.58 nmol/cm^2 and the “Normalized cumulative amount at cathode” value is 9.77 ± 1.95 nmol/cm^2. In data set [1] (setting [8]), the “Ratio (Trp/Kyn) at anode” value is given as 0.89 ± 0.02 and the “Ratio (Trp/Kyn) at cathode” value came out at 0.95 ± 0.02. The “Ratio Trp/Kyn at cathode cubic” value in data set [2] (from amounts in the cubic phase) was determined as 0.94 ± 0.04. Besides, the “Ratio Trp/Kyn at cathode total” value in data set [2] (from the total cumulative amount) amounted to 0.86 ± 0.05. In data set [2], the “Cumulative amount Cubic at anode” value came out at 0.68 ± 0.05 nmol/cm^2, the “Cumulative amount Cubic at cathode” value was determined as 5.29 ± 0.48 nmol/cm^2, the “Cumulative amount Total at anode” value is 0.68 ± 0.05 nmol/cm^2 and the “Cumulative amount Total at cathode” value amounted to 6.57 ± 1.00 nmol/cm^2.
